Results taken from PubChem BioAssay AID1963444 (Molecular Pharmacology Branch, DTP, NCI, 2024).
Where “and” joins values, the source holds several entries; their conditions need not be identical. Identical values can stand only once. Blank lines part the entries; values can stand above or below the compound they belong to.

System: HSSY-II complex spheroid growth, percent test/control
Experiment: Anticancer human tumor HSSY-II cell line growth inhibition [Asc];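 further: spheroids exposed to drug for 7 days before reading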
Conditions: for viability, T/C: stronger effect = lower value
How it was run: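 Spheroid model: tumor line + HUVEC + hMSC. Single agents and combinations; top conc. at/near clinical Cmax (10 microM if undetermined), half-log dilutions. DMSO stocks at 800-fold test concentration.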

[1] = curve of first compound, second compound 0.1 µM
[2] = curve of first compound, second compound 0.316 µM
[3] = curve of first compound, second compound 1 µM
[4] = curve of first compound, second compound 3.16 µM
[5] = curve of first compound, second compound 10 µM
[6] = second compound 0.1 µM, first compound 0.00316 µM
[7] = second compound 0.1 µM, first compound 0.01 µM
[8] = second compound 0.1 µM, first compound 0.0316 µM
[9] = second compound 0.1 µM, first compound 0.1 µM
[10] = second compound 0.316 µM, first compound 0.00316 µM
[11] = second compound 0.316 µM, first compound 0.01 µM
[12] = second compound 0.316 µM, first compound 0.0316 µM
[13] = second compound 0.316 µM, first compound 0.1 µM
[14] = second compound 1 µM, first compound 0.00316 µM
[15] = second compound 1 µM, first compound 0.01 µM
[16] = second compound 1 µM, first compound 0.0316 µM
[17] = second compound 1 µM, first compound 0.1 µM
[18] = second compound 3.16 µM, first compound 0.00316 µM
[19] = second compound 3.16 µM, first compound 0.01 µM
[20] = second compound 3.16 µM, first compound 0.0316 µM
[21] = second compound 3.16 µM, first compound 0.1 µM
[22] = second compound 10 µM, first compound 0.00316 µM
[23] = second compound 10 µM, first compound 0.01 µM
[24] = second compound 10 µM, first compound 0.0316 µM
[25] = second compound 10 µM, first compound 0.1 µM
[26] = second compound 0.1 µM, first compound 0.000316 µM
[27] = second compound 0.1 µM, first compound 0.001 µM
[28] = second compound 0.316 µM, first compound 0.000316 µM
[29] = second compound 0.316 µM, first compound 0.001 µM
[30] = second compound 1 µM, first compound 0.000316 µM
[31] = second compound 1 µM, first compound 0.001 µM

SMILES: CCN1C(C(=O)NC23CCC(C(=O)O)(CC2)CC3)C(c2cccc(Cl)c2F)C2(C(=O)Nc3cc(Cl)ccc32)C12CCCCC2 (stereo unspecified) + Cc1c(S(C)(=O)=O)c(-c2cc(F)cc(N3CCN(c4ccc(NS(=O)(=O)c5ccc(NC(CCN6CCC(C(=O)OCCCP(=O)(O)O)CC6)CSc6ccccc6)c(S(=O)(=O)C(F)(F)F)c5)cc4)CC3)c2)c(-c2ccc(Cl)cc2)n1C(C)C
IC50 [1]: 100 nM
IC50 [2]: 59.4 nM
IC50 [3]: 83.5 nM
IC50 [4]: 54.2 nM
IC50 [5]: 53.9 nM
viability, T/C (second compound 0.1 µM, first compound 0.00949 µM): 106%
viability, T/C (second compound 0.1 µM, first compound 0.03 µM): 92.7%
viability, T/C (second compound 0.1 µM, first compound 0.0949 µM): 49.4%
viability, T/C (second compound 0.1 µM, first compound 0.3 µM): 19.4%
viability, T/C (second compound 0.1 µM, first compound 0.949 µM): 3.79%
viability, T/C (second compound 0.1 µM, first compound 3 µM): 0.58%
viability, T/C (second compound 0.316 µM, first compound 0.00949 µM): 102%
viability, T/C (second compound 0.316 µM, first compound 0.03 µM): 78.1%
viability, T/C (second compound 0.316 µM, first compound 0.0949 µM): 29.7%
viability, T/C (second compound 0.316 µM, first compound 0.3 µM): 11.1%
viability, T/C (second compound 0.316 µM, first compound 0.949 µM): 3.4%
viability, T/C (second compound 0.316 µM, first compound 3 µM): 0.3%
viability, T/C (second compound 1 µM, first compound 0.00949 µM): 104%
viability, T/C (second compound 1 µM, first compound 0.03 µM): 84.6%
viability, T/C (second compound 1 µM, first compound 0.0949 µM): 47.4%
viability, T/C (second compound 1 µM, first compound 0.3 µM): 9.68%
viability, T/C (second compound 1 µM, first compound 0.949 µM): 1.67%
viability, T/C (second compound 1 µM, first compound 3 µM): 0.19%
viability, T/C (second compound 3.16 µM, first compound 0.00949 µM): 94.3%
viability, T/C (second compound 3.16 µM, first compound 0.03 µM): 73.3%
viability, T/C (second compound 3.16 µM, first compound 0.0949 µM): 28%
viability, T/C (second compound 3.16 µM, first compound 0.3 µM): 4.69%
viability, T/C (second compound 3.16 µM, first compound 0.949 µM): 1.19%
viability, T/C (second compound 3.16 µM, first compound 3 µM): 0.17%
viability, T/C (second compound 10 µM, first compound 0.00949 µM): 92.8%
viability, T/C (second compound 10 µM, first compound 0.03 µM): 73.6%
viability, T/C (second compound 10 µM, first compound 0.0949 µM): 27.2%
viability, T/C (second compound 10 µM, first compound 0.3 µM): 4.78%
viability, T/C (second compound 10 µM, first compound 0.949 µM): 1.16%
viability, T/C (second compound 10 µM, first compound 3 µM): 0.26%

SMILES: NC1CCC(NC2CC2c2ccccc2)CC1 (stereo unspecified) + Cc1c(S(C)(=O)=O)c(-c2cc(F)cc(N3CCN(c4ccc(NS(=O)(=O)c5ccc(NC(CCN6CCC(C(=O)OCCCP(=O)(O)O)CC6)CSc6ccccc6)c(S(=O)(=O)C(F)(F)F)c5)cc4)CC3)c2)c(-c2ccc(Cl)cc2)n1C(C)C
IC50 [1]: > 100 nM
IC50 [2]: > 100 nM
IC50 [3]: > 100 nM
IC50 [4]: > 100 nM
IC50 [5]: > 100 nM
viability, T/C [26]: 58.9%
viability, T/C [27]: 69.2%
viability, T/C [6]: 64%
viability, T/C [7]: 56.5%
viability, T/C [8]: 60.3%
viability, T/C [9]: 66.5%
viability, T/C [28]: 77%
viability, T/C [29]: 67.3%
viability, T/C [10]: 58.9%
viability, T/C [11]: 60.6%
viability, T/C [12]: 60%
viability, T/C [13]: 64.5%
viability, T/C [30]: 70.3%
viability, T/C [31]: 60.8%
viability, T/C [14]: 57.5%
viability, T/C [15]: 59%
viability, T/C [16]: 60.6%
viability, T/C [17]: 62.8%
viability, T/C (second compound 3.16 µM, first compound 0.000316 µM): 73.1%
viability, T/C (second compound 3.16 µM, first compound 0.001 µM): 62.1%
viability, T/C [18]: 60.8%
viability, T/C [19]: 61.1%
viability, T/C [20]: 59.9%
viability, T/C [21]: 61.4%
viability, T/C (second compound 10 µM, first compound 0.000316 µM): 66%
viability, T/C (second compound 10 µM, first compound 0.001 µM): 66.5%
viability, T/C [22]: 70.2%
viability, T/C [23]: 57.9%
viability, T/C [24]: 62.3%
viability, T/C [25]: 66.6%

SMILES: Cc1c(S(C)(=O)=O)c(-c2cc(F)cc(N3CCN(c4ccc(NS(=O)(=O)c5ccc(NC(CCN6CCC(C(=O)OCCCP(=O)(O)O)CC6)CSc6ccccc6)c(S(=O)(=O)C(F)(F)F)c5)cc4)CC3)c2)c(-c2ccc(Cl)cc2)n1C(C)C (stereo unspecified)
IC50 (compound alone, run of 10/11/2022): > 10000 nM and 2630 nM

Further compounds by falling IC50 [1], results first:

IC50 [1]: 37.6 nM
IC50 [2]: 31.7 nM
IC50 [3]: 25.4 nM
IC50 [4]: 26.3 nM
IC50 [5]: 26.4 nM
SMILES: COc1c(OCCCN2CCOCC2)ccc2c3n(c(=NC(=O)c4cnc(N)nc4)nc12)CCN3 + Cc1c(S(C)(=O)=O)c(-c2cc(F)cc(N3CCN(c4ccc(NS(=O)(=O)c5ccc(NC(CCN6CCC(C(=O)OCCCP(=O)(O)O)CC6)CSc6ccccc6)c(S(=O)(=O)C(F)(F)F)c5)cc4)CC3)c2)c(-c2ccc(Cl)cc2)n1C(C)C
viability, T/C [6]: 86.7%
viability, T/C [7]: 72.9%
viability, T/C [8]: 50.5%
viability, T/C [9]: 35.9%
viability, T/C (second compound 0.1 µM, first compound 0.316 µM): 20.9%
viability, T/C (second compound 0.1 µM, first compound 1 µM): 10.2%
viability, T/C [10]: 86.4%
viability, T/C [11]: 74.1%
viability, T/C [12]: 48.5%
viability, T/C [13]: 28.6%
viability, T/C (second compound 0.316 µM, first compound 0.316 µM): 19.6%
viability, T/C (second compound 0.316 µM, first compound 1 µM): 8.57%
viability, T/C [14]: 90.1%
viability, T/C [15]: 67%
viability, T/C [16]: 45%
viability, T/C [17]: 30.4%
viability, T/C (second compound 1 µM, first compound 0.316 µM): 17.7%
viability, T/C (second compound 1 µM, first compound 1 µM): 7.86%
viability, T/C [18]: 82.1%
viability, T/C [19]: 67.9%
viability, T/C [20]: 42.4%
viability, T/C [21]: 34.5%
viability, T/C (second compound 3.16 µM, first compound 0.316 µM): 16.2%
viability, T/C (second compound 3.16 µM, first compound 1 µM): 6.36%
viability, T/C [22]: 77.6%
viability, T/C [23]: 68.9%
viability, T/C [24]: 42.9%
viability, T/C [25]: 30.7%
viability, T/C (second compound 10 µM, first compound 0.316 µM): 16.4%
viability, T/C (second compound 10 µM, first compound 1 µM): 3.47%

IC50 (curve of first compound, second compound 0.01 µM): > 100 nM
IC50 (curve of first compound, second compound 0.0316 µM): < 0.316 nM
IC50 [1]: 0.67 nM
IC50 [2]: < 0.316 nM
IC50 [3]: < 0.316 nM
SMILES: NC1CCC(NC2CC2c2ccccc2)CC1 (stereo unspecified) + CNC(C)C(=O)NC1CN(S(=O)(=O)c2cccc(S(=O)(=O)N3CCC4CCC(C(=O)NC(c5ccccc5)c5ccccc5)N4C(=O)C(NC(=O)C(C)NC)C3)c2)CCC2CCC(C(=O)NC(c3ccccc3)c3ccccc3)N2C1=O
viability, T/C (second compound 0.01 µM, first compound 0.000316 µM): 59.5%
viability, T/C (second compound 0.01 µM, first compound 0.001 µM): 59.1%
viability, T/C (second compound 0.01 µM, first compound 0.00316 µM): 48.6%
viability, T/C (second compound 0.01 µM, first compound 0.01 µM): 54.9%
viability, T/C (second compound 0.01 µM, first compound 0.0316 µM): 56.4%
viability, T/C (second compound 0.01 µM, first compound 0.1 µM): 52.1%
viability, T/C (second compound 0.0316 µM, first compound 0.000316 µM): 43.9%
viability, T/C (second compound 0.0316 µM, first compound 0.001 µM): 43.3%
viability, T/C (second compound 0.0316 µM, first compound 0.00316 µM): 46.4%
viability, T/C (second compound 0.0316 µM, first compound 0.01 µM): 49.3%
viability, T/C (second compound 0.0316 µM, first compound 0.0316 µM): 45.5%
viability, T/C (second compound 0.0316 µM, first compound 0.1 µM): 48.7%
viability, T/C [26]: 56.2%
viability, T/C [27]: 46.3%
viability, T/C [6]: 48.4%
viability, T/C [7]: 49.2%
viability, T/C [8]: 39%
viability, T/C [9]: 49.9%
viability, T/C [28]: 51.2%
viability, T/C [29]: 44.2%
viability, T/C [10]: 49.4%
viability, T/C [11]: 43.4%
viability, T/C [12]: 47.1%
viability, T/C [13]: 47.6%
viability, T/C [30]: 38.7%
viability, T/C [31]: 47.1%
viability, T/C [14]: 51.8%
viability, T/C [15]: 41.2%
viability, T/C [16]: 46.6%
viability, T/C [17]: 52.7%
